According to US10570178B2, “Selective delivery molecules and methods of use” (Avelas Biosciences, Inc., priority 2011, dated 2020):
Blank lines part the entries; values can stand above or below the molecule they belong to. Numbered stars: 1 amine (or outer) side, 2 acyl side, 3 side chain; on linkers, the order of the positions; unused ones are H or OH. Square brackets hold non-standard residues; d marks the D form. Ends that are not written are not given here. Cys(Me) = S-methyl-cysteine, CSC[C@H](N[*:1])C(=O)[*:2]; Phe(4-Ac) = CC(=O)c1ccc(C[C@H](N)C(=O)O)cc1; AEA = NCCOCC(=O)O

Legend:
HT-1080 xenograft model = test: In vivo imaging assay for tumor contrast; set-up: species or system mouse
Procedure: HT-1080 xenograft model was generated as described in Example 14 and used to evaluate the ability of molecules to provide in vivo tumor fluorescence contrast compared to surrounding tissue. Fluorescent conjugates were tested in HT-1080 tumor-bearing mice once the tumors had reached 100-200 mm^3 in size (typically 1-2 weeks post-tumor cells implantation). Conscious HT-1080 tumor-bearing mice were restrained using a rotating tail injector (Cat. # RTI; Braintree Scientific, MA, USA) and dosed intravenously (tail vein) with the test compound at between 0.1 and 5 nanomoles per mouse in 100 uL saline solution. In preparation for imaging, mice were lightly anesthetized with a mixture of ketamine/xylazine (Cat. # K-113; Sigma, Aldrich, Mo., USA) given intraperitoneally (1 μL/gram body weight) to minimize movement.
Serial whole-body imaging (tumor included) was done using a whole-animal fluorescent visualization imaging system or Olympus stereo fluorescent microscope. The mice were positioned on their backs and imaging was performed from the top to image the ventral side of the animal. […] Contrast was calculated using the following equation: Contrast=(Fluorescence intensity of tumor−Fluorescence intensity of contralateral chest tissue)/Intensity of contralateral chest tissue).
Contrast greater than 0.4 in the whole animal is easily detected by eye in the whole animal image and is good contrast. […]

[1] = system: Murine 4T1 tumor model, metastatic cervical lymph nodes; test: In vivo detection of cancer metastases to lymph node, emission ratio contrast; set-up: species or system mouse; settings: metastatic vs non-metastatic lymph nodes, peritumoral administration
[2] = target: T1, matrix metalloproteinase-2 (MMP-2) (Homo sapiens, UniProt P08253); test: Enzyme dependent fluorescence enhancement and color change: cleavage of FRET SDM by MMP-2; type: biochemical; settings: 1 μM SDM
T1 sequence (P08253 110-660): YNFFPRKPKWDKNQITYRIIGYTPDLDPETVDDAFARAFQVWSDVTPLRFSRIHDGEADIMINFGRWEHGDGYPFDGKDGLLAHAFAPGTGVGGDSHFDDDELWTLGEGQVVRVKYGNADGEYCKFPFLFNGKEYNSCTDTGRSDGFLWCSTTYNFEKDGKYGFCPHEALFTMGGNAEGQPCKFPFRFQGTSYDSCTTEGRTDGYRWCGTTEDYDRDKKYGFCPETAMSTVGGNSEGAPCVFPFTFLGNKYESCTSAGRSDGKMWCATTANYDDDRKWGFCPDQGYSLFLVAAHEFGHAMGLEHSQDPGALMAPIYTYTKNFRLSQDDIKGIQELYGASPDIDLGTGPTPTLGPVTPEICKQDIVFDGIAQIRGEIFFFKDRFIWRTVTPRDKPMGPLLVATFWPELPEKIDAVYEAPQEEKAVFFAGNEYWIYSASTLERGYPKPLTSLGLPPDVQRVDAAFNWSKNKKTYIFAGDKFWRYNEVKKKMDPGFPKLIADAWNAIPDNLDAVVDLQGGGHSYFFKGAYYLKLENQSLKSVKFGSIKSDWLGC
Procedure: FIG. 2 exemplifies ratiometric fluorescence changes of selective delivery molecules. In this figure, SDM-9 was cleaved with 1 nM MMP-2 enzyme. The increase of donor (left panel) and decrease in acceptor (right panel) fluorescence is indicative of decreased FRET after peptide cleavage.
Selective delivery molecule 9 was dissolved in TCNB buffer (50 mM Tris, pH 7.5, with 10 mM calcium chloride, 150 mM sodium chloride, and 0.05% BRIJ 35) at room temperature at 1 μM. Fluorescence spectra were recorded on F-2500 fluorescence spectrometer. The Cy5 fluorescence donor was excited using 625 nm light and the emission was scanned from 660 to 800 nm. Peptide cleavage was initiated with addition of matrix metalloproteinase-2 (MMP-2) at a final concentration of 1 nM. The cleavage reaction was complete within 2 hour and the fluorescence spectra indicated FRET disruption and a large 8-fold increase the Cy5 donor emission and 2-fold decrease in the Cy7 emission. The actual intrinsic fluorescence decrease of Cy7 is larger however it is masked by the Cy5 long wavelength shoulder.

[3] = system: HT-1080 tumor homogenates; test: Fluorogenic response from tumor homogenates (gel electrophoresis); type: biochemical, mouse
Procedure: FIG. 4 exemplifies fluorescence enhancement of selective delivery molecule SDM-10 upon cleavage by tumor homogenates. Selective delivery molecule 10 (SDM-10) was cleaved with HT-1080 tumor homogenates. 1 nM MMP-9 or 10 uL tumor tissue homogenates (TH2 and TH3) were mixed with 1 uM […] in 100 uL buffer for 24 h at 37° C. GM6001 is a general broad spectrum inhibitor of MMPs. […] Uncleaved SDM-10 is nonfluorescent due to efficient quenching (second column from left).
HT1080 cells (Cat. # CCL-121; American Type Culture Collection, Va., USA) were grown under exponential growth conditions in humidified atmosphere of 5% CO2 in air at 37° C. until reaching 80-100% confluence before harvesting for mouse implantation. Each nude mouse was hand restrained and injected with 2×10^6 HT-1080 cells into the mammary fat pad using a 25-G needle. HT-1080 tumors were harvested when they had reached 100-200 mm^3 in size (typically 1-2 weeks post-tumor cells implantation).
HT-1080 tumors were homogenized using ultrasonic disruption. 1 nM MMP-9 or 10 μl, tumor tissue homogenates (TH2 and TH3) were mixed with 1 μM SDM-10 in 100 μL buffer for 24 h at 37° C. Selective delivery molecule 6 was used as a fluorescent control of similar size to intact SDM-10. The samples were loaded on a polyacrylamide gel and separated using electrophoresis. […] GM6001 is a general broad spectrum inhibitor of MMPs.

MMP-9 = MMP-9 (Homo sapiens, UniProt P14780); test: Enzyme dependent fluorescence enhancement: cleavage of quenched SDM by MMP-9; type: biochemical; settings: 1 μM SDM
Procedure: FIG. 3 exemplifies fluorescence enhancement of selective delivery molecules after protease cleavage. SDM-10 was cleaved with 1 nM MMP-9 enzyme in buffered saline. The Cy5 fluorescence increases >100 fold after peptide cleavage because the quencher dyes is no longer intramolecularly attached to Cy5 and it can no longer efficiently quench Cy5.
Selective delivery molecule 10 was dissolved in TCNB buffer (pH 7.5) at room temperature at 1 μM. Fluorescence spectra were recorded on F-2500 fluorescence spectrometer. Excitation of the Cy5 fluorescence donor was excited at 625 nm and the emission was measured at 669 nm. Peptide cleavage was initiated with addition of MMP-9 at a final concentration of 1 nM. The cleavage reaction was complete within 2 hour and the fluorescence was enhanced >100-fold upon protease cleavage, FIG. 3.

[4] = 1 nM MMP-2, TCNB buffer pH 7.5, excitation 625 nm

Sequence of MMP-9 (P14780 94-707): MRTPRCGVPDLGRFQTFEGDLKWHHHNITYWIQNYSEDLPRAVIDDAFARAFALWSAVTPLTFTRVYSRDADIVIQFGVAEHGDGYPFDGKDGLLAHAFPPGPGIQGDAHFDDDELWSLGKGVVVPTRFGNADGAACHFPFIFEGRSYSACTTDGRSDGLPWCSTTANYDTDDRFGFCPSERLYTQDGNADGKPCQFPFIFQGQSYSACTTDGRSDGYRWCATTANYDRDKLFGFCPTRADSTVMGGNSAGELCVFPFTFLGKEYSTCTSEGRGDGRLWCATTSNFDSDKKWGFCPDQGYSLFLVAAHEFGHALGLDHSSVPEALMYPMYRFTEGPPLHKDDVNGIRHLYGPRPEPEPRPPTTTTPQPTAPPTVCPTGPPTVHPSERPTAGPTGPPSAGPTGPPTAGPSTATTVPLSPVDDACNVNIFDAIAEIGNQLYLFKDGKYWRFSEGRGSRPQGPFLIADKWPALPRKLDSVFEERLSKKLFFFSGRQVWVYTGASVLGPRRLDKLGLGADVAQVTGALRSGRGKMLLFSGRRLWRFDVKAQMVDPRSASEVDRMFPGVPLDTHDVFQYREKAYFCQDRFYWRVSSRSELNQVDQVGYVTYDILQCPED

- decrease in Cy7 emission after cleavage [2, 4]: 2 fold
- increase in Cy5 donor emission after cleavage [2, 4]: 8 fold
- time to complete cleavage reaction ([2]; 1 nM MMP-2, room temperature): ≤ 2 h
Molecule: SDM-9: prepared analogously to SDM-25 from peptide P-3; Cy5 donor and Cy7 FRET acceptor ([dE][dE][dE][dE][dE][Phe(4-Ac)][AEA]PLG[Cys(Me)]AG[dR][dR][dR][dR][dR][dR][dR][dR][dC]-NH2; not fully specified (some residues, N-terminus))
- Time to maximum contrast (HT-1080 xenograft model; HT-1080 xenograft, IV dosing): Fast (4 < fast < 12)
- Maximum Contrast (HT-1080 xenograft model; tumor vs contralateral chest tissue fluorescence, IV 0.1-5 nanomoles per mouse, imaged 1-24 hours after injection): High (≥0.9 = high)
- Peritumor Maximum Contrast [1]: Low (Low <20%)

Molecule: CNC(=O)[C@H](Cc1c[nH]c2ccccc12)NC(=O)[C@@H](CC(=O)NO)CC(C)C [GM6001, reference compound]
- effect on tumor homogenate cleavage of SDM-10 ([3]; MMP inhibitor added to HT-1080 homogenate with SDM-10): inhibits cleavage

- Cy5 fluorescence enhancement upon protease cleavage (MMP-9; 1 nM MMP-9, excitation 625 nm, emission 669 nm): > 100 fold
- time to complete cleavage reaction (MMP-9; 1 nM MMP-9, room temperature): ≤ 2 h
Molecule: SDM-10: prepared analogously to SDM-25 from peptide P-3; Cy5 fluorophore with dye quencher ([dE][dE][dE][dE][dE][Phe(4-Ac)][AEA]PLG[Cys(Me)]AG[dR][dR][dR][dR][dR][dR][dR][dR][dC]-NH2; numbers in words are those of the source; also: Cy5 fluorophore, quencher dye and mPEG carrier attached, sites not given here)
- cleavage by HT-1080 tumor homogenates ([3]; 1 μM SDM, 10 μL homogenate in 100 μL buffer, 24 h, 37° C.): cleaved and becomes highly fluorescent
- fluorescence of intact, uncleaved form on gel ([3]; polyacrylamide gel): essentially non-fluorescent
